In article PMC11589570, “Critical assessment of LC3/GABARAP ligands used for degrader development and ligandability of LC3/GABARAP binding pockets” (Nature Communications, 2024):
Several values for one entry are separate records, joined by “and”; a condition that tells them apart may be missing. Equal entries are not always repeated.

Key:
LC3A = LC3A (Homo sapiens, UniProt Q9H492); experiment: FP assay with Cy5-labelled p62 LIR tracer (protein titration and tracer displacement); type: binding; details: two replicate columns per compound
LC3B = LC3B (Homo sapiens, UniProt Q9GZQ8); experiment: as above; type: binding; details: for normalized FP signal, p62 LIR tracer displacement: LC3B; for compound titration LC3B (displacement curve, FP signal): two replicate columns per compound
all LC3/GABARAPs = experiment: Covalent compound screening by ESI LC-MS; details: 50 µM protein, 100 µM compound, 90 min
LC3C = LC3C (Homo sapiens, UniProt Q9BXW4); experiment: FP assay with Cy5-labelled p62 LIR tracer (protein titration and tracer displacement); type: binding; details: two replicate columns per compound
GABARAPL1 = GABARAPL1 (Homo sapiens, UniProt Q9H0R8); experiment: as above; type: binding; details: for compound titration GABARAPL1 (displacement curve, FP signal): two replicate columns per compound; for FP tracer displacement curve signal (compound titration): duplicate values, listed as Cov2
GABARAP = GABARAP (Homo sapiens, UniProt O95166); experiment: as above; type: binding; details: two replicate columns per compound
[1] = log10 concentration [M] -3.82391
[2] = log10 concentration [M] -4.1549
[3] = log10 concentration [M] -4.60206
[4] = log10 concentration [M] -5.30103
[5] = log10 concentration [M] -5.69897
[6] = log10 concentration [M] -6.22185
[7] = log10 concentration [M] -6.69897
[8] = log10 concentration [M] -7.30103
[9] = log10 concentration [M] -7.79588
[10] = log10 concentration [M] -8.08092

Sequence of GABARAP (O95166 1-116): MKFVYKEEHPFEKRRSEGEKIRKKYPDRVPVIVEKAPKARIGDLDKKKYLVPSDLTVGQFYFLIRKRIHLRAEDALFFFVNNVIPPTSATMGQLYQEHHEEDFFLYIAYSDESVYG
Sequence of GABARAPL1 (Q9H0R8 whole entry): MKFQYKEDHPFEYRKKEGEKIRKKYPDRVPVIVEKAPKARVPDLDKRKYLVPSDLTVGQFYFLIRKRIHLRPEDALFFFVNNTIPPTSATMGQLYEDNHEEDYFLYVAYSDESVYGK
Sequence of LC3C (Q9BXW4 1-126): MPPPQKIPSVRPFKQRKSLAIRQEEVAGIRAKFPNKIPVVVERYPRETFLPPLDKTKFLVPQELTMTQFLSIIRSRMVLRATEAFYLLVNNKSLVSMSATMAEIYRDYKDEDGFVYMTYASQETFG

Question: With `CC(=O)N1CCN(CCNC=C2C(=O)CC(c3ccc(Cl)cc3)CC2=O)CC1` (stereo not drawn) [compound 6] as the compound, how does the “compound titration LC3A (displacement curve, FP signal)” value (shortened to “compound titration LC3A”) (LC3A; [1]) read?
Answer: Its value is 92.8947 and 97.3684.

Question: And the “compound titration LC3A” value (LC3A; [2])?
Answer: Its value is 97.1053 and 102.368.

Question: What about the “compound titration LC3A” value (LC3A; [3]) of the same compound?
Answer: The value was 99.7368 and 100.789.

Question: What about the “compound titration LC3A” value (LC3A; log10 concentration [M] -5) of the same compound?
Answer: The value was 103.421 and 103.947.

Question: And the “compound titration LC3A” value (LC3A; [4])?
Answer: The value was 103.421 and 100.789.

Question: And the “compound titration LC3A” value (LC3A; [5])?
Answer: Its value is 99.7368 and 96.0526.

Question: What about the “compound titration LC3A” value (LC3A; [6]) of the same compound?
Answer: Its value is 101.316 and 102.105.

Question: What about the “compound titration LC3A” value (LC3A; [7]) of the same compound?
Answer: Its value is 103.947 and 107.368.

Question: What about the “compound titration LC3A” value (LC3A; [8]) of the same compound?
Answer: The value was 104.211 and 101.579.

Question: What about the “compound titration LC3A” value (LC3A; [9]) of the same compound?
Answer: The value was 104.211 and 98.6842.

Question: And the “compound titration LC3A” value (LC3A; [10])?
Answer: Its value is 104.211 and 93.9474.

Question: And the “normalized FP signal, p62 LIR tracer displacement” value (“normalized FP signal” for short) (LC3B; [1])?
Answer: The value was 71.5789 and 68.1579.

Question: What about the “normalized FP signal” value (LC3B; [2]) of the same compound?
Answer: Its value is 85 and 83.6842.

Question: What about the “normalized FP signal” value (LC3B; [3]) of the same compound?
Answer: Its value is 92.8947 and 95.7895.

Question: And the “normalized FP signal” value (LC3B; log10 concentration [M] -5)?
Answer: Its value is 95.7895 and 97.3684.

Question: And the “normalized FP signal” value (LC3B; [4])?
Answer: The value was 97.6316 and 99.7368.

Question: And the “normalized FP signal” value (LC3B; [5])?
Answer: The value was 96.0526 and 102.368.

Question: And the “normalized FP signal” value (LC3B; [6])?
Answer: Its value is 95 and 100.789.

Question: And the “normalized FP signal” value (LC3B; [7])?
Answer: The value was 99.2105 and 96.8421.

Question: And the “normalized FP signal” value (LC3B; [8])?
Answer: Its value is 99.7368 and 100.263.

Question: And the “normalized FP signal” value (LC3B; [9])?
Answer: The value was 97.6316 and 101.579.

Question: What about the “normalized FP signal” value (LC3B; [10]) of the same compound?
Answer: The value was 95.2632 and 105.263.

Question: What about the “compound titration LC3B (displacement curve, FP signal)” value (shortened to “compound titration LC3B”) (LC3B; [1]) of the same compound?
Answer: The value was 71.5789 and 68.1579.

Question: What about the “compound titration LC3B” value (LC3B; [2]) of the same compound?
Answer: The value was 85 and 83.6842.

Question: What about the “compound titration LC3B” value (LC3B; [3]) of the same compound?
Answer: The value was 92.8947 and 95.7895.

Question: What about the “compound titration LC3B” value (LC3B; log10 concentration [M] -5) of the same compound?
Answer: Its value is 95.7895 and 97.3684.

Question: What about the “compound titration LC3B” value (LC3B; [4]) of the same compound?
Answer: Its value is 97.6316 and 99.7368.

Question: What about the “compound titration LC3B” value (LC3B; [5]) of the same compound?
Answer: Its value is 96.0526 and 102.368.

Question: What about the “compound titration LC3B” value (LC3B; [6]) of the same compound?
Answer: Its value is 95 and 100.789.

Question: What about the “compound titration LC3B” value (LC3B; [7]) of the same compound?
Answer: The value was 99.2105 and 96.8421.

Question: And the “compound titration LC3B” value (LC3B; [8])?
Answer: Its value is 99.7368 and 100.263.

Question: And the “compound titration LC3B” value (LC3B; [9])?
Answer: Its value is 97.6316 and 101.579.

Question: What about the “compound titration LC3B” value (LC3B; [10]) of the same compound?
Answer: Its value is 95.2632 and 105.263.

Question: What about the “covalent labelling (mass shift, ESI MS)” value (all LC3/GABARAPs) of the same compound?
Answer: The value was “successfully labelled”.

Question: What about the “compound titration LC3C (displacement curve, FP signal)” value (“compound titration LC3C” for short) (LC3C; [1]) of the same compound?
Answer: The value was 87.8 and 86.8.

Question: What about the “compound titration LC3C” value (LC3C; [2]) of the same compound?
Answer: The value was 94.6 and 92.

Question: And the “compound titration LC3C” value (LC3C; [3])?
Answer: Its value is 98.2 and 98.8.

Question: And the “compound titration LC3C” value (LC3C; log10 concentration [M] -5)?
Answer: Its value is 94.6 and 102.4.

Question: What about the “compound titration LC3C” value (LC3C; [4]) of the same compound?
Answer: Its value is 93.4 and 98.8.

Question: What about the “compound titration LC3C” value (LC3C; [5]) of the same compound?
Answer: The value was 90 and 93.6.

Question: And the “compound titration LC3C” value (LC3C; [6])?
Answer: The value was 93.6 and 98.6.

Question: What about the “compound titration LC3C” value (LC3C; [7]) of the same compound?
Answer: The value was 97.6 and 98.8.

Question: What about the “compound titration LC3C” value (LC3C; [8]) of the same compound?
Answer: The value was 101.6 and 101.4.

Question: And the “compound titration LC3C” value (LC3C; [9])?
Answer: Its value is 90.4 and 95.6.

Question: And the “compound titration LC3C” value (LC3C; [10])?
Answer: Its value is 99.2 and 98.

Question: And the “compound titration GABARAPL1 (displacement curve, FP signal)” value (“compound titration GABARAPL1” below) (GABARAPL1; [1])?
Answer: Its value is 89 and 90.4286.

Question: What about the “compound titration GABARAPL1” value (GABARAPL1; [2]) of the same compound?
Answer: Its value is 94.7143 and 97.7143.

Question: What about the “compound titration GABARAPL1” value (GABARAPL1; [3]) of the same compound?
Answer: Its value is 98.2857 and 100.143.

Question: And the “compound titration GABARAPL1” value (GABARAPL1; log10 concentration [M] -5)?
Answer: Its value is 102.429 and 101.571.

Question: And the “FP tracer displacement curve signal (compound titration)” value (shortened to “FP tracer displacement curve signal”) (GABARAPL1; [5])?
Answer: Its value is 94.4286 and 98.2857.

Question: What about the “FP tracer displacement curve signal” value (GABARAPL1; [6]) of the same compound?
Answer: Its value is 101.857 and 101.143.

Question: And the “FP tracer displacement curve signal” value (GABARAPL1; [7])?
Answer: Its value is 102.714 and 104.571.

Question: What about the “FP tracer displacement curve signal” value (GABARAPL1; [8]) of the same compound?
Answer: The value was 102.571 and 101.857.

Question: And the “FP tracer displacement curve signal” value (GABARAPL1; [9])?
Answer: Its value is 99.8571 and 100.429.

Question: And the “FP tracer displacement curve signal” value (GABARAPL1; [10])?
Answer: The value was 102.571 and 101.

Question: What about the “compound titration GABARAP (displacement curve, FP signal)” value (GABARAP; [1]) of the same compound?
Answer: Its value is 90.8621 and 84.1379.

Question: And the “compound titration GABARAP (displacement curve, FP signal)” value (GABARAP; [2])?
Answer: Its value is 94.8276 and 93.7931.

Question: What about the “compound titration GABARAP (displacement curve, FP signal)” value (GABARAP; [3]) of the same compound?
Answer: The value was 93.1034 and 98.2759.

Question: What about the “compound titration GABARAP (displacement curve, FP signal)” value (GABARAP; log10 concentration [M] -5) of the same compound?
Answer: The value was 100.69 and 98.6207.

Question: What about the “compound titration GABARAP (displacement curve, FP signal)” value (GABARAP; [4]) of the same compound?
Answer: The value was 97.5862 and 99.4828.

Question: And the “compound titration GABARAP (displacement curve, FP signal)” value (GABARAP; [5])?
Answer: The value was 92.2414 and 94.1379.

Question: And the “compound titration GABARAP (displacement curve, FP signal)” value (GABARAP; [6])?
Answer: The value was 97.4138 and 95.5172.

Question: What about the “compound titration GABARAP (displacement curve, FP signal)” value (GABARAP; [7]) of the same compound?
Answer: The value was 98.1034 and 97.7586.

Question: And the “compound titration GABARAP (displacement curve, FP signal)” value (GABARAP; [8])?
Answer: The value was 98.9655 and 102.759.

Question: What about the “compound titration GABARAP (displacement curve, FP signal)” value (GABARAP; [9]) of the same compound?
Answer: Its value is 95.6897 and 95.

Question: And the “compound titration GABARAP (displacement curve, FP signal)” value (GABARAP; [10])?
Answer: The value was 97.069 and 98.9655.
